Test results reported in US9693997B2, “Antiviral compounds” (priority 2013, dated 2017).

What was measured:
[1] = test system: Pseudotyped HCV GT1b particles (HCVpp), entry into Huh7-high CD81 cells; experiment: microbe, parasite or virus in culture; type: cell-based, HCV GT1b Con1 strain; settings: Hepatitis C virus, GT1B, 72 h, read-out: HCVpp GT-1b (EC50, μM)
[2] = test system: pseudotyped VSV G particles (VSVpp) in Huh7-high CD81 cells; experiment: microbe, parasite or virus in culture; type: cell-based, vesicular stomatitis virus; settings: Vesicular stomatitis virus, 72 h, read-out: VSVpp (EC50, μM)

Structure (SMILES) | EC50 [1] [µM] | EC50 [2] [µM]
CC(C)(C)Oc1ccc(-c2c(Cl)cc(Nc3n[nH]c(N)n3)cc2C(F)(F)F)cc1 [Compound 230, N*3*-(4′-tert-Butoxy-6-chloro-2-trifluoromethyl-biphenyl-4-yl)-1H-[1,2,4]triazole-3,5-diamine] | 0.332 | > 10
COc1ccc(-c2c(Cl)cc(Nc3n[nH]c(N)n3)cc2C(F)(F)F)cc1C(F)(F)F [Compound 231, N*3*-(6-Chloro-4′-methoxy-2,3′-bis-trifluoromethyl-biphenyl-4-yl)-1H-[1,2,4]triazole-3,5-diamine] | 0.41 | > 10
Nc1nc(Nc2cc(Cl)c(-c3ccc(S(=O)(=O)N4CC(F)C4)cc3)c(C(F)(F)F)c2)n[nH]1 [Compound 233, N*3*-[6-Chloro-4′-(3-fluoro-azetidine-1-sulfonyl)-2-trifluoromethyl-biphenyl-4-yl]-1H-[1,2,4]triazole-3,5-diamine] | 0.051 | > 10
COc1ccc(-c2c(Cl)cc(Nc3n[nH]c(N)n3)cc2C(F)(F)F)cc1S(=O)(=O)N(CC(F)(F)F)C1CCNCC1 [Compound 234, 4′-(5-Amino-1H-[1,2,4]triazol-3-ylamino)-6′-chloro-4-methoxy-2′-trifluoromethyl-biphenyl-3-sulfonic acid piperidin-4-yl-(2,2,2-trifluoro-ethyl)-amide; compound with trifluoro-acetic acid] | 0.005 | > 10
Nc1nc(Nc2cc(Cl)c(-c3ccc(NC(=O)C4CCC(F)(F)CC4)cc3)c(C(F)(F)F)c2)n[nH]1 [Compound 235, 4,4-Difluorocyclohexanecarboxylic acid [4′-(5-amino-1H-[1,2,4]triazol-3-ylamino)-2′-chloro-6′-trifluoromethyl-biphenyl-4-yl]-amide] | 0.012 | > 10
CC(C)(C)N1CC(OC(=O)Nc2ccc(-c3c(Cl)cc(Nc4n[nH]c(N)n4)cc3C(F)(F)F)cc2)C1 [Compound 236, [4′-(5-amino-1H-[1,2,4]triazol-3-ylamino)-2′-chloro-6′-trifluoromethyl-biphenyl-4-yl]-carbamic acid 1-tert-butyl-azetidin-3-yl ester] | 0.045 | > 10
CCCOC(=O)Nc1ccc(-c2c(Cl)cc(Nc3n[nH]c(N)n3)cc2C(F)(F)F)cc1 [Compound 237, [4′-(5-amino-1H-[1,2,4]triazol-3-ylamino)-2′-chloro-6′-trifluoromethyl-biphenyl-4-yl]-carbamic acid propyl ester] | 0.058 | 3.67
Nc1nc(Nc2cc(Cl)c(-c3ccc(NC(=O)C4CCS(=O)(=O)CC4)cc3)c(C(F)(F)F)c2)n[nH]1 [Compound 239] | 0.122 | > 10
Nc1nc(Nc2cc(Cl)c(-c3ccc(NC(=O)CN4CCOCC4)cc3)c(C(F)(F)F)c2)n[nH]1 [Compound 241, [4′-(5-amino-1H-[1,2,4]triazol-3-ylamino)-2′-chloro-6′-trifluoromethyl-biphenyl-4-yl]-2-morpholin-4-yl-acetamide] | 0.123 | > 10
CS(=O)(=O)Nc1cccc(-c2c(F)cc(Nc3nc(N)n[nH]3)cc2C(F)(F)F)c1 [Compound 243, N-[4′-(5-Amino-2H-[1,2,4]-triazol-3-ylamino)-6′-fluoro-2′-trifluoromethyl-biphenyl-3-yl]-methanesulfonamide] | 0.213 | > 10
Nc1n[nH]c(Nc2cc(F)c(-c3cccc(F)c3)c(C(F)(F)F)c2)n1 [Compound 244] | 0.689 | 33.4
Nc1n[nH]c(Nc2cc(F)c(-c3ccc(F)cc3)c(C(F)(F)F)c2)n1 [Compound 245, N^5-[6,4′-Difluoro-2-trifluoromethylbiphenyl-4-yl]-1H-[1,2,4]-triazole-3,5-diamine] | 1.47 | 17.1
Nc1n[nH]c(Nc2cc(F)c(-c3ccc(C(F)(F)F)cc3)c(C(F)(F)F)c2)n1 [Compound 246, N^5-[6-Fluoro-2,4′-bis-trifluoromethylbiphenyl-4-yl]-1H-[1,2,4]-triazole-3,5-diamine] | 3.54 | 37.9
Cc1ccc(-c2c(F)cc(Nc3nc(N)n[nH]3)cc2C(F)(F)F)cc1 [Compound 247, N^5-[6-Fluoro-4′-methyl-2-trifluoromethylbiphenyl-4-yl]-1H-[1,2,4]-triazole-3,5-diamine] | 1.7 | 10.7
CNC(=O)c1cccc(-c2c(F)cc(Nc3nc(N)n[nH]3)cc2C(F)(F)F)c1 [Compound 248, 4′-(5-Amino-2H-[1,2,4]-triazol-3-ylamino)-6′-fluoro-2′-trifluoromethyl-biphenyl-43-carboxylic acid methylamide] | 1.02 | > 10
Nc1n[nH]c(Nc2cc(F)c(-c3ccc4ccccc4c3)c(C(F)(F)F)c2)n1 [Compound 249, N^5-(3-Fluoro-4-naphthalen-2-yl-5-trifluoromethylphenyl)-1H-[1,2,4]-triazole-3,5-diamine] | 0.991 | 17.2
Nc1nc(Nc2cc(Cl)c(-c3ccc(NC(=O)C4CCC(F)(F)CC4)cc3)c(Cl)c2)n[nH]1 [Compound 250, 4,4-Difluorocyclohexanecarboxylic acid [4′-(5-amino-1H-[1,2,4]triazol-3-ylamino)-2′,6′-dichloro-biphenyl-4-yl]-amide] | 0.013 | 14
CC(C)C(=O)Nc1ccc(-c2c(Cl)cc(Nc3n[nH]c(N)n3)cc2Cl)cc1 [Compound 251, N-[4′-(5-amino-1H-[1,2,4]triazol-3-ylamino)-2′,6′-dichloro-biphenyl-4-yl]-isobutyramide] | 0.041 | 32.5
CC(C)C(=O)Nc1cccc(-c2c(Cl)cc(Nc3n[nH]c(N)n3)cc2Cl)c1 [Compound 252, N-[4′-(5-amino-1H-[1,2,4]triazol-3-ylamino)-2′,6′-dichloro-biphenyl-3-yl]-isobutyramide] | 0.067 | > 10
Nc1nc(Nc2cc(Cl)c(-c3ccc(S(N)(=O)=O)cc3)c(Cl)c2)n[nH]1 [Compound 253] | 0.026 | 0.6
Nc1nc(Nc2cc(Cl)c(-c3ccc4[nH]c(=O)[nH]c4c3)c(Cl)c2)n[nH]1 [Compound 255] | 0.42 | > 10
Nc1nc(Nc2cc(Cl)c(-c3ccc4c(c3)NC(=O)C4)c(Cl)c2)n[nH]1 [Compound 256] | 0.594 | 8.69
Nc1nc(Nc2cc(Cl)c(-c3ccc4[nH]ncc4c3)c(Cl)c2)n[nH]1 [Compound 257, N-3-[3′,5′-dichlorophenyl-4′-(1H-indazol-5-yl)-phenyl]-1H-[1,2,4]triazole-3,5-diamine] | 0.343 | 2.73
Nc1nc(Nc2ccc(-c3c(Cl)cccc3Cl)cc2)n[nH]1 [Compound 258] | 20.2 | 26.2
Nc1n[nH]c(Nc2cc(Cl)c(-c3ccc(OC4CCCNC4)cc3)c(Cl)c2)n1 (stereo not shown) [Compound 259] | 0.089 | 4.27
CC(C)(C)OC(=O)N1CC(COc2ccc(-c3c(Cl)cc(Nc4n[nH]c(N)n4)cc3Cl)cc2)C1 [Compound 260, 3-[4′-(5-Amino-1H-[1,2,4]triazol-3-ylamino)-2′,6′-dichloro-biphenyl-4-yloxymethyl]-azetidine-1-carboxylic acid tert-butyl ester] | 0.022 | 17.5
